According to patent publication US4971966A, “Substituted pyrido(2,3-B) (1,4) benzodiazepin-6-ones, and medicaments containing these compounds” (Karl Thomae GmbH, priority 1986, dated 1990):
Like-named read-outs stand apart in the source and are kept apart here.

Experiments:
[1] = target: muscarinic receptors, cerebral cortex; experiment: Receptor binding assay in vitro, cerebral cortex (3H-NMS displacement); set-up: species or system male Sprague-Dawley rats; conditions: rat cerebral cortex homogenate; 0.3 nmolar 3H-NMS, 30° C., 45 min, pH 7.4
Protocol: The organ donors were male Sprague-Dawley rats with a body weight of 180-220 g. […] Finally, all the organs were processed in a potter homogeniser. […] The organ homogenates were incubated at a defined concentration of the radio-ligand and a series of concentrations of the non-radioactive test substances in Eppendorf centrifuge tubes at 30° C. The incubation lasted 45 minutes. The radioligand used was 0.3 nmolar ^3 H-N-methylscopolamine (^3 H-NMS). The incubation was stopped by addition of ice-cold buffer, followed by a vacuum filtration. The filters were washed with cold buffer, and their radioactivity was determined. This represents the total of specific and non-specific binding of ^3 H-NMS. The contribution of the non-specific binding was defined as that radioactivity which was bound in the presence of 1 micromolar quinuclidinyl benzylate. Determinations were always carried out in quadruplicate. The IC50 values of the unlabelled test substances were determined graphically.

[2] = target: T1, muscarinic receptors, complete heart (Rattus norvegicus, UniProt P10980); experiment: biochemical
T1 sequence (P10980 1-466): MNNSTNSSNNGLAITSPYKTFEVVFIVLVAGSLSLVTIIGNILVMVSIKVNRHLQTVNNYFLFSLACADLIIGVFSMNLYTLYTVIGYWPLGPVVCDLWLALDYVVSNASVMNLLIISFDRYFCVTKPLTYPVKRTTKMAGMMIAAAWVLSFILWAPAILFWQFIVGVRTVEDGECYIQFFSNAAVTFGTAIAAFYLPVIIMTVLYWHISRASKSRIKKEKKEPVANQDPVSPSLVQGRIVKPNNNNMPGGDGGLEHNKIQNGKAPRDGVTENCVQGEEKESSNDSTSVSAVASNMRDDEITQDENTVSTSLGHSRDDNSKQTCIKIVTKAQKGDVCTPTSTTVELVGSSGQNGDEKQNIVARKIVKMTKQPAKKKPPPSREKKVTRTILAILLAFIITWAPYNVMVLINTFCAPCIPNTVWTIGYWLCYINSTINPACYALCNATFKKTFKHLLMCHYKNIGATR

[3] = target: T2, muscarinic receptors, heart ventricle (Rattus norvegicus, UniProt P10980); experiment: Receptor binding assay in vivo, heart ventricle; set-up: species or system female rats; conditions: iv, 0.5 h, read-out: ID50, heart ventricle
T2 construct: the heart, the bronchi and the lacrimal glands were removed; from tissue; host or cells: rat heart ventricle, labelled in vivo
T2 sequence (P10980 1-466): T1 sequence (P10980 1-466)
Protocol: (§1) Female rats with a body weight of about 200 g were used for these experiments. Before the start of the experiment, the animals were anaesthetised with a dose of 1.25 g/kg urethane. The animals each received the specified dose of the test substance by i.v. injection. After 15 minutes had elapsed 113 ng/kg ^3 H-N-methylscopolamine (^3 H-NMS) were administered in the same way. After a further 15 minutes, the animals were sacrificed, and the heart, the bronchi and the lacrimal glands were removed. These organs were dissolved in Soluene R, and the radioactivity was determined. These measurements were assumed to be the total binding. […] ID50 values were determined for the individual organs from these experiments.

[4] = system: heart rate, conscious dog; experiment: Effect increasing the heart rate in the conscious dog (tachycardia); format: in vivo; conditions: for ED50: Canis lupus familiaris, dose for increase of 50 beats/min.
Protocol: The substances were either injected intravenously or administered orally, and the heart rate was measured using a tachygraph. After a control period, increasing doses of the compound were administered in order to increase the heart rate. In each case, the next dose was administered when the effect of the preceding dose was no longer evident. The dose of a substance which brought about an increase of 50 beats/min. (ED50) was determined graphically. Each substance was examined on 3 to 5 dogs.

[5] = target: T3, muscarinic receptors, heart atrium (Rattus norvegicus, UniProt P10980); experiment: Receptor binding assay in vivo, heart atrium; set-up: species or system female rats; conditions: iv, 0.5 h, read-out: ID50, heart atrium
T3 construct: the heart, the bronchi and the lacrimal glands were removed; from tissue; host or cells: rat heart atrium, labelled in vivo
T3 sequence (P10980 1-466): T1 sequence (P10980 1-466)
Protocol: as §1

[6] = system: muscarinic receptors, bronchi; experiment: Receptor binding assay in vivo, bronchi; set-up: species or system female rats; conditions: i.v.; inhibition of 50% of specific 3H-NMS binding; 30 min
Protocol: as §1

[7] = target: T4, muscarinic receptors, submandibular gland (Rattus norvegicus, UniProt P08483); experiment: Receptor binding assay in vitro, submandibular gland (3H-NMS displacement); set-up: species or system male Sprague-Dawley rats; conditions: rat submandibular gland homogenate; 0.3 nmolar 3H-NMS, 30° C., 45 min, pH 7.4
T4 construct: After removal of the heart, submandibular gland and cerebral cortex; from tissue; host or cells: rat submandibular gland homogenate

[8] = target: T5, muscarinic receptors of the atrium (Cavia porcellus, UniProt H0VRN8); experiment: Dissociation constants in vitro on the spontaneously beating right atrium; set-up: species or system guinea pig; conditions: methacholine agonist, 30 min contact, Arunlakshana and Schild, read-out: Dissociation constant KB, heart
T5 construct: In the isolated, spontaneously beating right atrium, M reduced the heart rate; from tissue; host or cells: guinea pig isolated right atrium
T5 sequence (H0VRN8 1-466): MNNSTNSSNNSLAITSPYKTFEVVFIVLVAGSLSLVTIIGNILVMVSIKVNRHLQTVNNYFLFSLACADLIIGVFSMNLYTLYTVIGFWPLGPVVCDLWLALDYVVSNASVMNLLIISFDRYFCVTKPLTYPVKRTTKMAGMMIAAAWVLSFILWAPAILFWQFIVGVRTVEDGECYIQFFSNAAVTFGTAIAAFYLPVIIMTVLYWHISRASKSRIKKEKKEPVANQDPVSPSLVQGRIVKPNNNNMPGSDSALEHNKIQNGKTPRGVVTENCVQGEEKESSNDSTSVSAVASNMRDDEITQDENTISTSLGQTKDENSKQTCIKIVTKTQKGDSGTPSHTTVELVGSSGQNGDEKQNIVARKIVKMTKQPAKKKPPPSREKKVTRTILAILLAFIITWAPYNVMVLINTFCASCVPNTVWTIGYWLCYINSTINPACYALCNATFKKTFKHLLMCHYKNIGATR
Protocol: (§2) Dissociation constants (KB values) were determined "in vitro" on the ileum and spontaneously beating atrium of the guinea pig. The ileum was removed and incubated in Krebs-Henseleit solution in an organ bath. Contractions were induced by increasing concentrations of methacholine (M) in such a way that it was possible to construct complete concentration-effect curves. Then M was washed out, the substance to be investigated was added and left in contact for 30 minutes, and again a concentration-effect curve with M was constructed.
Dissociation constants for the muscarinic receptors of the atrium were obtained in the same way as described above. Comparison of the dissociation constants determined in the two tissues permitted cardioselective substances to be identified.

[9] = system: pilocarpine-induced secretion of saliva; experiment: Effect inhibiting secretion of saliva in the rat; format: in vivo, male THOM rats; conditions: iv, 2 mg/kg pilocarpine s.c., urethane anaesthesia, read-out: Inhibition of secretion of saliva (rat) ED50
Protocol: Secretion of saliva was induced by s.c. administration of 2 mg/kg pilocarpine. The saliva was absorbed using blotting paper, and the area covered by it was determined by planimetry every 5 minutes. The dose of the substance which reduced the volume of saliva by 50% was determined graphically.

[10] = target: T6, muscarinic receptors, ileum (Cavia porcellus, UniProt H0W1Z3); experiment: Dissociation constants in vitro on the ileum; set-up: species or system guinea pig; conditions: ileum contractions; methacholine agonist; 30 min contact; Arunlakshana and Schild; read-out: Dissociation constant KB, ileum
T6 construct: The ileum was removed and incubated in Krebs-Henseleit solution in an organ bath; from tissue; host or cells: guinea pig isolated ileum
Protocol: as §2

M2 = target: T7, M2 (Rattus norvegicus, UniProt P10980); experiment: M1/M2 selectivity in the rat: M2-activity (vagal bradycardia); format: in vivo, male THOM rats; conditions: iv, read-out: M2-activity (rat) ED50
T7 construct: The bradycardia induced by stimulation of the vagus; from tissue; host or cells: living male THOM rat, heart
T7 sequence (P10980 1-466): T1 sequence (P10980 1-466)
Protocol: The method which was used has been described by Hammer and Giachetti (Life Sciences 31, 2991-2998 (1982)). Five minutes after intravenous injection of increasing doses of the substance, either the right vagus was electrically stimulated (frequency: 25 Hz; pulse width: 2ms; stimulus duration: 30s; number of volts: supramaximal) or 0.3 mg/kg McN-A-343 was injected intravenously into male THOM rats. The bradycardia induced by stimulation of the vagus, and the increase in blood pressure caused by McN-A-343, were determined. The dose of the substances which reduced either the vagal bradycardia (M2) or the increase in blood pressure (M1) by 50% was determined graphically.

[11] = target: T8, muscarinic receptors, lacrimal glands (Rattus norvegicus, UniProt P08483); experiment: Receptor binding assay in vivo, lacrimal gland; set-up: species or system female rats; conditions: iv, 0.5 h, read-out: ID50, lacrimal gland
T8 construct: the heart, the bronchi and the lacrimal glands were removed; from tissue; host or cells: rat lacrimal glands, labelled in vivo
Protocol: as §1

M1 = target: T9, M1 (Rattus norvegicus, UniProt P08482); experiment: M1/M2 selectivity in the rat: M1-activity (increase in blood pressure caused by McN-A-343); format: in vivo, male THOM rats; conditions: iv, read-out: M1-activity (rat) ED50
T9 construct: from tissue; host or cells: living male THOM rat, sympathetic ganglia (site by own knowledge)
T9 sequence (P08482 1-460): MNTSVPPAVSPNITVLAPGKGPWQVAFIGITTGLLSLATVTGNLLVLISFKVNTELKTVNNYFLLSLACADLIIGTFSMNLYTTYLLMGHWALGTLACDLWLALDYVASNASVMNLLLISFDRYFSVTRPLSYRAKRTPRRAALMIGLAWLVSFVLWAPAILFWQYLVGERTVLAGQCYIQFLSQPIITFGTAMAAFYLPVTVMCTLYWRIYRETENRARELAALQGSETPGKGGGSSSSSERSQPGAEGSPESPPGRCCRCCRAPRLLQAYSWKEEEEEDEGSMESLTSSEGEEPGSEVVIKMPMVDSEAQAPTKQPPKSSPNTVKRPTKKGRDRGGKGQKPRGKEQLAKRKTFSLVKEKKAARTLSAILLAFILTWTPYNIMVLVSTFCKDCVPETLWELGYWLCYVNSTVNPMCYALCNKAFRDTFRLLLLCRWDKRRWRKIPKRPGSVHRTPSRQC
Protocol: The dose of the substances which reduced either the vagal bradycardia (M2) or the increase in blood pressure (M1) by 50% was determined graphically.

T8 sequence (P08483 whole entry): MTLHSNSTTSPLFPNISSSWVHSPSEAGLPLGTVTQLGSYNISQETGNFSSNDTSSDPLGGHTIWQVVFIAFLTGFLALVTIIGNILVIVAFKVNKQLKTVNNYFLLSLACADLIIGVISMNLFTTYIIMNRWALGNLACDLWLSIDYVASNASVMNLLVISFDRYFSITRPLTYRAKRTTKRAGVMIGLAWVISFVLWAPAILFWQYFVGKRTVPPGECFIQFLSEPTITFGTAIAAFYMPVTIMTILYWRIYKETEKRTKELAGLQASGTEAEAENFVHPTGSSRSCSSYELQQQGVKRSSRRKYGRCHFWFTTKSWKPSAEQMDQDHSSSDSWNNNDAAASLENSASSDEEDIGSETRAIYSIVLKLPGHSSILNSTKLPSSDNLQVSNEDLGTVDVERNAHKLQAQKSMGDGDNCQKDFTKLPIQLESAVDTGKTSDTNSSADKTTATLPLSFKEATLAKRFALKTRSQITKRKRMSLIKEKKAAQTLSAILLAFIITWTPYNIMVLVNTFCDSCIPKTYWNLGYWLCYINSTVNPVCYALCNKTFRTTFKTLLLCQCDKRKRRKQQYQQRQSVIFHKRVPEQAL
T6 sequence (H0W1Z3 1-590): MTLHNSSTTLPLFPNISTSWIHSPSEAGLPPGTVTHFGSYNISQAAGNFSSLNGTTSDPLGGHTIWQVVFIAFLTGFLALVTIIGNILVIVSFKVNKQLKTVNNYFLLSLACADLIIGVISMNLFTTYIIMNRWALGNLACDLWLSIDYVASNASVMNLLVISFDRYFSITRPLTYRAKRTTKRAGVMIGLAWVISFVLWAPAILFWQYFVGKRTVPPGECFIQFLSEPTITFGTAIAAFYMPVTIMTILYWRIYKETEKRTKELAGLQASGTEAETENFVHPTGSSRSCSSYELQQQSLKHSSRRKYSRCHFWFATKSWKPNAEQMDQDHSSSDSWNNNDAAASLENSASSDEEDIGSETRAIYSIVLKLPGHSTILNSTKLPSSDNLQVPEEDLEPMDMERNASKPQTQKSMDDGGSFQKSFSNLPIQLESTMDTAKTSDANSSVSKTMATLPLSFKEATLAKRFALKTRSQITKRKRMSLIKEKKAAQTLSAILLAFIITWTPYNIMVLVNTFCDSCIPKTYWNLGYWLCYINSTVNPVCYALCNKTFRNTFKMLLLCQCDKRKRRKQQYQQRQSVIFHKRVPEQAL
T4 sequence (P08483 whole entry): as the sequence (P08483 whole entry) above

Row | SMILES | IC50 [1] | IC50 [2] | ED50 [3] | ED50 ([4]; intravenous, read-out: Tachycardia (dog) ED50 intravenous) | ED50 ([4]; oral, read-out: Tachycardia (dog) ED50 oral) | Ratio ED50 p.o./ED50 i.v. ([4]; tachycardia, conscious dog) | ED50 [5] | ID50, bronchi [6] | IC50 [7] | Kb [8] | ED50 [9] | Kb [10] | ED50 (M2; 50% reduction of vagal bradycardia) | ED50 [11] | ED50 (M1; 50% reduction of McN-A-343 (0.3 mg/kg i.v.) blood pressure increase) | ED50 (M2) | ED50 (M1)
1 | CCN(CC)CC1CCCCN1CC(=O)N1c2cc(Cl)ccc2C(=O)Nc2cccnc21 (stereo not drawn) [Substance A, 9-chloro-11-[[2-[(diethylamino)methyl]-1-piperidinyl]-acetyl]-5,11-dihydro-6H-pyrido[2,3-b]-[1,4]benzodiazepin-6-one] | 500 nM | 50 nM | 0.3 mg/kg | 0.17 mg/kg | 0.38 mg/kg | 2 | 0.6 mg/kg | 8.0 mg/kg | 1500 nM | 14.8 nM | 7.57 mg/kg | 513 nM | 0.077 mg/kg | 30 mg/kg | 1.48 mg/kg |  | 
2 | CCN(CC)CC1CCCCN1CC(=O)N1c2ccccc2C(=O)Nc2cccnc21 (stereo not drawn) [Substance B, 11-[[2-[(diethylamino)methyl]-1-piperidinyl]acetyl]-5,11-dihydro-6H-pyrido[2,3-b][1,4]benzodiazepin-6-one] |  |  |  |  |  |  |  |  |  |  |  |  |  | 30 mg/kg |  |  | 
3 | CN1CCN(CC(=O)N2c3ccccc3C(=O)Nc3cccnc32)CC1 [Substance C, 5,11-dihydro-11-[(4-methyl-1-piperazinyl)acetyl]-6H-pyrido[2,3-b][1,4]benzodiazepin-6one] |  |  |  |  |  |  |  |  |  |  | 0.084 mg/kg |  |  |  |  |  | 
4 | CN1[C@@H]2CC[C@H]1CC(OC(=O)C(CO)c1ccccc1)C2 (stereo partly drawn) [Substance D, atropine, reference compound] |  |  | 0.03 mg/kg |  |  |  | 0.08 mg/kg | 0.1 mg/kg |  | 1.41 nM |  |  |  | 0.2 mg/kg |  | 0.004 mg/kg | 0.016 mg/kg
